In US10711027B2, “DNA polymerase beta inhibitors” (The Johns Hopkins University, priority 2016, dated 2020):
Values joined by “and” are separate entries in the source; they are usually repeats but may differ in a detail not shown here. Equal values may be shown once. “Also recorded” adds a separate entry of the source.

Experiments:
Ape1 = Ape1 (Homo sapiens, UniProt P27695); experiment: Ape1 activity on a duplex containing AP; assay type: biochemical
HeLa cells [1] = experiment: Clonogenic assay for cell survival; assay type: cell-based, human; details: for cell death, individual treatment: pro-13 5 μM, pro-1 5 μM, MMS 0.1 mM; for enhancement (potentiation) of MMS cytotoxicity: compared to individual agents
Method: HeLa (human cervical carcinoma) cells were maintained in Dulbecco's Modified Eagle's Medium (DMEM), supplemented with 10% fetal bovine serum (FBS), 100 U mL^−1 of penicillin and 100 μg mL^−1 of streptomycin at 37° C. in a humidified incubator at 5% CO2. […] At 90% confluency, there are around 1.5×10^7 cells in one dish of 150 mm×25 mm. Cell viability assay. […] After the indicated time, the medium was removed from the cell culture by aspiration, and washed once with PBS. A stock solution of bleomycin sulphate (1 mM) in DMSO was diluted in the culture medium to 2 μM and then added to the plates keeping the quantity of DMSO constant at 1% for all tests. Cells were then incubated for 2 h at 37° C. in a CO2 incubator. The medium was then subsequently replaced with fresh DMEM-FBS and incubation was continued for an additional 1 or 2 h at 37° C. in a CO2 incubator. […] A portion (10 μL) of the cell suspension was thoroughly mixed with 10 μL of 0.4% solution of trypan blue in PBS (pH 7.2 to 7.3), and placed on a counting slide (BIO-RAD) to count the % of live cells using a TC20 automated cell counter (BIO-RAD). A control experiment without treating with bleomycin sulphate was carried out in parallel. All the experiments were carried out at least 3 times, and each experiment consisted of 3 replicates.
After overnight incubation at 37° C. in a humidified atmosphere of 5% CO2, cells were subjected to the appropriate DNA damaging conditions (or controls). For alkylation experiments, cells were incubated with MMS (0, 0.1, or 0.2 mM), with or without pro-13 (5 μM) for 1 or 2 h. For experiments involving recovery after MMS treatment, the medium containing MMS and/or pro-13 was replaced after 2 h with fresh medium with or without pro-13 (5 μM) and incubation continued for 2-8 h. For BLM experiments, cells were incubated with BLM (2 μM), with or without pro-13 (5 μM) for 2 h, at which time the medium was replaced with fresh medium containing only pro-13 (5 μM) and incubation was continued for 2 h. The growth medium was then removed from each well and the cells were washed with PBS (2×1 mL). […] The single cell suspensions were collected in 1.6 mL tubes and counted using a Bio-Rad TC20 Automated Cell Counter. Stock solutions of single cell suspensions were made in two groups for each concentration with 500 cells/mL (for untreated control) and 1500 cells/mL (for treated cells), respectively. These cells were seeded in 6 well plates (well size; 35 mm×18 mm) in 2 mL of 10% DMEM-FBS. The plates were incubated in humidified atmosphere with 5% CO2 for 7 days. After 7 days, the growth medium was discarded and the attached cells were treated with 0.2% w/v crystal violet solution. The excess dye was washed with water and the colonies were counted under a stereomicroscope. Plating efficiencies (PE) and survival fractions (SF) were calculated as follows: PE=number of colonies[…]number of cells seeded; SF=PE[…]PE (control).

HeLa cells [2] = experiment: AP/dRP site accumulation in genomic DNA (aldehyde reactive probe); assay type: cell-based, human
Description: Evidence that pro-13 leads to BER inhibition in HeLa cells was obtained by determining its effect on the level of aldehyde reactive probe (ARP) sites (Table 1). ARP is routinely used to quantify AP sites in DNA, and has been employed to validate Ape1 inhibition, but dRP detection via this method was not known. Rai et al., 2012; Dorjsuren et al., 2012; Ide et al., 1993; Asaeda et al., 1998. […] Inhibition of Pol β (and/or Pol λ) should lead to a build-up of dRP sites instead of AP, which would be indistinguishable from AP using ARP (Scheme 11). […] The level of AP/dRP sites in the genomic DNA isolated from HeLa cells treated with MMS, pro-13 or a combination, was subsequently measured. Following treatment with the DNA damaging agent (1 h), the medium was replaced with fresh medium with or without pro-13 (5 μM), and the cells were incubated an additional 23 h. The level of ARP reactive sites increased approximately 3-fold when cells were treated with a combination of MMS and pro-13 compared to just the alkylating agent (Table 1), consistent with the inhibition of BER in cells treated with the proinhibitor.
HeLa cells (approximately 1×10^7) were plated in 150 mm×25 mm dishes and treated with DMSO (1% final concentration), MMS (0.3 or 0.4 mM), or pro-13 (5 μM) alone or with a combination of MMS (0.3 or 0.4 mM), and pro-13 (5 μM) for 1 h at 37° C. The cellular medium was then replaced with fresh DMEM-FBS and incubation was continued for 23 h at 37° C. in a CO2 incubator in the absence or presence of pro-13 (5 μM). Cells were then harvested with 0.25% Trypsin-EDTA, and the genomic DNA of each sample was isolated according to Dojindo Genomic DNA isolation kit (www.dojindo.com/TechnicalManual/Manual_GKO3.pdf). The concentration of genomic DNA was measured at 260 nm and adjusted to 100 ng/μL. An aliquot of purified DNA (1 μg) was labeled with 10 μL of aldehyde reactive probe (ARP) reagent (N′-aminooxymethylcarbonylhydrazino-D-biotin), and AP/dRP sites were determined using the DNA damage quantification kit from Dojindo Molecular Technologies (DK02-12) by measuring the absorbance at 650 nm using an ELISA microplate reader (BioRad).

HeLa cells [3] = experiment: Comet assay to visualize DNA damage; assay type: cell-based, human; details: BLM 2 μM 2 h
Method: Bleomycin sulphate treatment of HeLa cells was carried out exactly in the same way as described above. The only difference was that approximately […] HeLa cells were plated in each well of the 6 wells culture plate. After the required incubation steps, the medium was aspirated from the cell culture, and washed with PBS (3×) by adding 5 mL of PBS to each well, scratching with a cell scraper (3 cm blade) and transferring the cells to a 15 mL Falcon tube. Cells were pelleted by centrifuging at 3000 g for 10 min at room temperature. Cells were resuspended in PBS and pelleted again. For the comet assay, cells were suspended in 2 mL PBS/well and counted (generally approximately 1×10^7/mL). An aliquot (10 μL) of the cell suspension was diluted to 1×10^5 cells/mL using PBS and used in an Oxiselect™ Comet Assay Kit (Cell Biolabs, INC. Catalog number STA-350) according to the product manual (www.cellbiolabs.com/sites/default/files/STA-350-comet-assay-kit.pdf). In brief, cell samples were combined with Comet Agarose at 1:10 ratio (v/v), titrurated with a pipette to mix, and immediately pipette 75 μL/well onto the OxiSelect™ Comet Slide. […] View slides by a fluorescence microscopy using a FITC filter. […] The relative tail lengths were determined with Open Comet software.

Chain of Ape1 (P27695 whole entry): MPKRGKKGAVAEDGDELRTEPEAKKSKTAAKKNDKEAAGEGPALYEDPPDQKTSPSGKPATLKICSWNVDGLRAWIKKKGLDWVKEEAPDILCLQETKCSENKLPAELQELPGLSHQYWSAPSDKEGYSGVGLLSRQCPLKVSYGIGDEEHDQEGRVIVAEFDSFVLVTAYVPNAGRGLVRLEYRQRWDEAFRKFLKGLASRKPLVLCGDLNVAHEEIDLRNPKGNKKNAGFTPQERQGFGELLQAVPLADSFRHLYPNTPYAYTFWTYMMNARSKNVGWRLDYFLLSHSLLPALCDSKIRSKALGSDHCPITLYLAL

Compound: COc1cc(Cl)c(/C=N/OC2C[C@H](n3cc(CNC(=O)c4cc5c(O)cccc5cc4O)c(=O)[nH]c3=O)O[C@@H]2COP(=O)(O)OCC2C[C@H](O)O[C@@H]2O)c(Cl)c1O (stereo partly drawn) [Compound 13]
- effect on Ape1 activity (Ape1): does not affect

Compound: COS(C)(=O)=O [MMS, methyl methanesulfonate, reference compound]
- cell death, individual treatment (HeLa cells [1]; 2 h): 15%
- cells survived (HeLa cells [1]; MMS 0.2 mM without proinhibitor, 2 h): 25%
- AP/dRP sites/10^5 bp (HeLa cells [2]; HeLa, MMS 0.3 mM, no pro-13): 9.2 ± 1.2 sites/10^5 bp
- AP/dRP sites/10^5 bp (HeLa cells [2]; HeLa, MMS 0.4 mM, no pro-13): 11.0 ± 1.5 sites/10^5 bp

Compound: COc1cc(Cl)c(/C=N/OC2C[C@H](n3cc(CNC(=O)c4cc5c(O)cccc5cc4O)c(=O)[nH]c3=O)O[C@@H]2COP(=O)(O)OCC2C[C@H](OC(C)=O)O[C@@H]2OC(C)=O)c(Cl)c1O (stereo partly drawn) [pro-13]
- cytotoxicity of proinhibitor alone (HeLa cells [1]; 5 μM): modest cytotoxic effects
- cell death (HeLa cells [1]; 5 μM alone, 1 h): 2%
- cells survive (HeLa cells [1]; 5 μM alone, 2 h): 93%
- synergism with MMS (HeLa cells [1]; 5 μM, MMS 0.1 or 0.2 mM, 1 or 2 h): synergistic effects
- cytotoxicity of proinhibitor alone (HeLa cells [1]; 5 μM, listed as Pro-13): only slightly cytotoxic; also recorded: only weakly cytotoxic
- cell death, individual treatment (HeLa cells [1]; 2 h): 7%
- fraction cell survival relative to cells incubated in absence of pro-13 (HeLa cells [1]; MMS 0.1 mM + pro-13 2 h, then 4 h additional incubation with pro-13 5 μM): 1/7
- cells survive (HeLa cells [1]; MMS 0.1 mM + pro-13 2 h, then 8 h additional incubation with pro-13 5 μM): 0.20±0.02% and 0.2%
- decrease in fraction cell survival (HeLa cells [1]; pro-13 5 μM + BLM 2 μM vs BLM alone): more than 2 fold
- fraction survival (HeLa cells [1]; pro-13 5 μM + MMS 0.1 mM, 2 h): 0.23 and 0.21±0.04
- fraction survival lower than expected from agents used separately (HeLa cells [1]; pro-13 5 μM + MMS 0.1 mM, 2 h): approximately 3.4 fold
- enhancement (potentiation) of MMS cytotoxicity (HeLa cells [1]; pro-13 5 μM + MMS 0.2 mM): ~13 fold
- enhancement (potentiation) of MMS cytotoxicity (HeLa cells [1]; pro-13 5 μM + MMS 0.2 mM, listed as Pro-13): approximately 13 fold
- cells survived (HeLa cells [1]; pro-13 5 μM + MMS 0.2 mM, longer reaction time (2 h)): < 2%
- cells survive (HeLa cells [1]; pro-13 5 μM co-incubated with BLM 2 μM): 43%
- abasic site repair (HeLa cells [2]; HeLa cells): inhibited
- AP/dRP sites/10^5 bp (HeLa cells [2]; HeLa, MMS 0.3 mM + pro-13 5 μM): 28.0 ± 1.4 sites/10^5 bp
- AP/dRP sites/10^5 bp (HeLa cells [2]; HeLa, MMS 0.4 mM + pro-13 5 μM): 33.0 ± 1.5 sites/10^5 bp
- increase in ARP reactive (abasic) sites vs MMS alone (HeLa cells [2]; HeLa, MMS + pro-13 5 μM): approximately 3 fold
- AP/dRP sites/10^5 bp (HeLa cells [2]; HeLa, pro-13 5 μM, no MMS): 4.6 ± 1.0 sites/10^5 bp

Compound: bleomycin [BLM]
- cell death (HeLa cells [1]; BLM 2 μM alone 2 h, 2 h recovery): No observable cell death
- DNA damage (tail length) (HeLa cells [3]): confirms DNA damage; also recorded: increase in the tail length
